The values below come from patent US20240279220A1, “INDOLE COMPOUNDS AND METHODS OF USE” (Genzyme Corporation, priority 2021, published 2024).

The assay has as its system NBD1/3D. Kind of assay: Aggregation analysis using differential static light scattering (DSLS), NBD1 thermal stability. The format is binding, Human. The conditions noted are these: ΔTagg versus DMSO control; compound at 100 μM. Here is the method:
Purified recombinant NBD1 was produced using previously described methods (A. Schmidt, J. L. Mendoza, P. J. Thomas (2011) Biochemical and Biophysical Approaches to Probe CFTR Structure (365-376) M. D. Amaral, K. Kunzelmann (eds.), Cystic Fibrosis, Methods in Molecular Biology 741, Springer Science+Business Media). The effect of test compounds on thermal stability of NBD1 was evaluated by differential static light scattering (DSLS) using the Harbinger Stargazer-384 instrument (Epiphyte Three, Toronto, Canada).
Test compounds were dissolved and diluted to desired concentrations in 100% DMSO. The compounds or DMSO controls (100 nL) were stamped into wells of a […] low volume optical plate (Corning Inc., Corning, NY) using the Echo 555 acoustic liquid handler (Labcyte Inc., San Jose, CA).
NBD1 protein was diluted to 0.2 mg/ml in S200 buffer (50 mM Tris-HCl, 150 mM NaCl, 5 mM MgCl2, 2 mM ATP, 2 mM DTT, pH7.6) containing 1% glycerol. 10 uL of protein solution was aliquoted into the 384-well plate harboring the test compounds and 10 uL mineral oil was overlayed onto the protein solution, using the epMotion robotic liquid handler (Eppendorf North America, Hauppauge, NY). After placing into the Stargazer instrument, the plate was heated at 1° C. per minute to 70° C. Images were captured from 25° C. to 70° C. every 0.5° C. At the end of the experiment run, instrument software integrated image files and analyzed data automatically. A […] regression curve was generated for each well, representing the increase in light scattering over time. A temperature of aggregation (Tagg) was calculated based on the inflection point of the curve. To better compare data across experiments the average Tagg for DMSO control wells was calculated and subtracted from values for wells containing compounds to obtain a “ΔTagg” value. These ΔTagg values reflect stabilizing efficacy of the compounds.
For the compound `[2H]C([2H])([2H])C(C#N)(c1cccc(CCC(=O)O)c1)c1cnc(-c2cc(Oc3c(F)cc4[nH]ccc4c3C)ccc2F)[nH]1` (centres unmarked) [Example 59, 3-(3-(1-cyano-1-(2-(2-fluoro-5-((6-fluoro-4-methyl-1H-indol-5-yl)oxy)phenyl)-1H-imidazol-5-yl)ethyl-2,2,2-d3)phenyl)propanoic acid], the “DSLS NBD1/3D Human Stability delta-T (° C.) @ 100 (μM)” value (shortened to “DSLS NBD1/3D Human Stability delta-T”) was “B (B: 5-10° C.)”.
In the case of `Cc1c(Oc2cccc(-c3ncc(C(C)(O)c4cccc(C5CC5C(=O)O)c4)[nH]3)c2)ccc2[nH]ccc12` (centres unmarked) [Example 222, 2-(3-(1-hydroxy-1-(2-(3-((4-methyl-1H-indol-5-yl)oxy)phenyl)-1H-imidazol-5-yl)ethyl)phenyl)cyclopropane-1-carboxylic acid] it was “B (B: 5-10° C.)”; in that of `C=C(c1cccc(CCC(=O)O)c1)c1cnc(-c2cc(Oc3c(F)cc4[nH]ccc4c3C)ccc2F)[nH]1` [Example 214, 3-(3-(1-(2-(2-Fluoro-5-((6-fluoro-4-methyl-1H-indol-5-yl)oxy)phenyl)-1H-imidazol-5-yl)vinyl)phenyl)propanoic acid], “C (C: ≤5° C.)”.
In the case of `Cc1c(Oc2ccc(F)c(-c3ncc(C(C)c4cccc([C@H]5CC5C(=O)O)c4F)[nH]3)c2)c(F)cc2[nH]ccc12` (single isomer, unassigned) [Example 139H, trans-2-(2-fluoro-3-(1-(2-(2-fluoro-5-((6-fluoro-4-methyl-1H-indol-5-yl)oxy)phenyl)-1H-imidazol-5-yl)ethyl)phenyl)cyclopropane-1-carboxylic acid] it was “C (C: ≤5° C.)”; in that of `CC(O)(c1cccc(CCC(=O)O)c1)c1nnc(-c2cc(Oc3c(F)cc4[nH]ccc4c3F)ccc2F)[nH]1` (centres unmarked) [Example 250, 3-(3-(1-(5-(5-((4,6-Difluoro-1H-indol-5-yl)oxy)-2-fluorophenyl)-4H-1,2,4-triazol-3-yl)-1-hydroxyethyl)phenyl)propanoic acid], “B (B: 5-10° C.)”; in that of `Cc1c(Oc2ccc(F)c(-c3ncc(C(C)(C)c4cccc(CCC(=O)O)c4F)[nH]3)c2)ccc2[nH]ccc12` [Example 161, 3-(2-fluoro-3-(2-(2-(2-fluoro-5-((4-methyl-1H-indol-5-yl)oxy)phenyl)-1H-imidazol-5-yl)propan-2-yl)phenyl)propanoic acid], “B (B: 5-10° C.)”.
The result for `O=C(O)CCc1cccc(Cn2ccc(-c3cccc(Oc4ccc5[nH]ccc5c4CO)c3)n2)c1` [Example 10, 3-(3-((3-(3-((4-(Hydroxymethyl)-1H-indol-5-yl)oxy)phenyl)-1H-pyrazol-1-yl)methyl)phenyl)propanoic acid] reads “B (B: 5-10° C.)”; that for `Cc1c(Oc2ccc(F)c(-c3ncc(C4(c5cc(F)cc(CCC(=O)O)c5)CC4)[nH]3)c2)c(F)cc2[nH]ccc12` [Example 156, 3-(3-fluoro-5-(1-(2-(2-fluoro-5-((6-fluoro-4-methyl-1H-indol-5-yl)oxy)phenyl)-1H-imidazol-5-yl)cyclopropyl)phenyl)propanoic acid], “B (B: 5-10° C.)”; that for `Cc1nc(-c2cc(Oc3c(F)cc4[nH]ccc4c3C)ccc2F)[nH]c1C(O)c1cccc(CCC(=O)O)c1` (centres unmarked) [Example 217, 3-(3-((2-(2-Fluoro-5-((6-fluoro-4-methyl-1H-indol-5-yl)oxy)phenyl)-4-methyl-1H-imidazol-5-yl)(hydroxy)methyl)phenyl)propanoic acid], “B (B: 5-10° C.)”.
As to `O=C(O)CCc1ccc(F)c(Cc2cnc(-c3cc(Oc4c(F)cc5[nH]ccc5c4F)ccc3F)[nH]2)c1` [Example 103, 3-(3-((2-(5-((4,6-difluoro-1H-indol-5-yl)oxy)-2-fluorophenyl)-1H-imidazol-5-yl)methyl)-4-fluorophenyl)propanoic acid], the “DSLS NBD1/3D Human Stability delta-T” value is “B (B: 5-10° C.)”.
Take `O=C(O)CCCc1cccc(Cc2nnc(-c3cccc(Oc4ccc5[nH]ccc5c4)c3)[nH]2)c1` [Example 259, 4-(3-((5-(3-((1H-Indol-5-yl)oxy)phenyl)-4H-1,2,4-triazol-3-yl)methyl)phenyl)butanoic acid]: the “DSLS NBD1/3D Human Stability delta-T” value is “B (B: 5-10° C.)”.
For the compound `Cc1c(Oc2ccc(F)c(-c3ncc(C(C)(O)c4cccc(CCC(=O)O)c4)[nH]3)c2)c(F)cc2[nH]cc(Cl)c12` (centres unmarked) [Example 201, 3-(3-(1-(2-(5-((3-chloro-6-fluoro-4-methyl-1H-indol-5-yl)oxy)-2-fluorophenyl)-1H-imidazol-5-yl)-1-hydroxyethyl)phenyl) propanoic acid], the “DSLS NBD1/3D Human Stability delta-T” value was “B (B: 5-10° C.)”.
The result for `O=C(O)CCc1cccc(C2(c3csc(-c4cc(Oc5c(F)cc6[nH]ccc6c5F)ccc4F)n3)CC(F)(F)C2)c1` [Example 94, 3-(3-(1-(2-(5-((4,6-difluoro-1H-indol-5-yl)oxy)-2-fluorophenyl)thiazol-4-yl)-3,3-difluorocyclobutyl)phenyl)propanoic acid] reads “B (B: 5-10° C.)”.
In the case of `CC(=O)CCc1cc(F)cc(C(C)(O)c2c[nH]c(-c3cc(Oc4c(F)cc5[nH]ccc5c4F)ccc3F)n2)c1` (centres unmarked) [Example 221, 4-(3-(1-(2-(5-((4,6-Difluoro-1H-indol-5-yl)oxy)-2-fluorophenyl)-1H-imidazol-4-yl)-1-hydroxyethyl)-5-fluorophenyl)butan-2-one] it was “C (C: ≤5° C.)”.
For the compound `CS(=O)(=O)c1c(Oc2ccc(F)c(-c3ncc(Cc4ccc5c(c4)CC(C(=O)O)C5)[nH]3)c2)c(F)cc2[nH]ccc12` (single isomer, unassigned) [Example 83B, 5-((2-(2-Fluoro-5-((6-fluoro-4-(methylsulfonyl)-1H-indol-5-yl)oxy)phenyl)-1H-imidazol-5-yl)methyl)-2,3-dihydro-1H-indene-2-carboxylic acid], the “DSLS NBD1/3D Human Stability delta-T” value was “B (B: 5-10° C.)”.
Take `O=C(O)CCc1cccc(Cc2nnc(-c3cc(Oc4c(F)cc5[nH]ccc5c4F)ccc3F)[nH]2)c1` [Example 240, 3-(3-((5-(5-((4,6-difluoro-1H-indol-5-yl)oxy)-2-fluorophenyl)-4H-1,2,4-triazol-3-yl)methyl)phenyl) propanoic acid]: the “DSLS NBD1/3D Human Stability delta-T” value is reported as “B (B: 5-10° C.)”.
With `Cc1c(Oc2ccc(F)c(-c3nc(Cc4cccc(CCC(=O)O)c4)n(C)n3)c2)c(F)cc2[nH]ccc12` [Example 241, 3-(3-((3-(2-Fluoro-5-((6-fluoro-4-methyl-1H-indol-5-yl)oxy)phenyl)-1-methyl-1H-1,2,4-triazol-5-yl)methyl)phenyl)propanoic acid], the “DSLS NBD1/3D Human Stability delta-T” value is listed as “B (B: 5-10° C.)”.
Regarding `COP(=O)(O)Cc1cccc(Cn2ccc(-c3cccc(Oc4ccc5[nH]ccc5c4CO)c3)n2)c1` [Example 13, methyl hydrogen (3-((3-(3-((4-(hydroxymethyl)-1H-indol-5-yl)oxy)phenyl)-1H-pyrazol-1-yl)methyl)benzyl)phosphonate], the “DSLS NBD1/3D Human Stability delta-T” value was “B (B: 5-10° C.)”.
In the case of `Cc1c(Oc2ccc(F)c(-c3ncc(C(C)(C#N)c4cccc(CCC(=O)O)c4)[nH]3)c2)c(F)cc2[nH]ccc12` (centres unmarked) [Example 50, 3-(3-(1-cyano-1-(2-(2-fluoro-5-((6-fluoro-4-methyl-1H-indol-5-yl)oxy)phenyl)-1H-imidazol-5-yl)ethyl)phenyl)propanoic acid] it was “B (B: 5-10° C.)”; in that of `CC(CO)(c1cccc(CCC(=O)O)c1)c1c[nH]c(-c2cc(Oc3c(F)c(F)c4[nH]ccc4c3S(C)(=O)=O)ccc2F)n1` (centres unmarked) [Example 69, 3-(3-(2-(2-(5-((6,7-difluoro-4-(methylsulfonyl)-1H-indol-5-yl)oxy)-2-fluorophenyl)-1H-imidazol-5-yl)-1-hydroxypropan-2-yl)phenyl)propanoic acid], “A (A: T ≥ 10° C.)”; in that of `CCCC(O)(c1cccc(CCC(=O)O)c1)c1c[nH]c(-c2cc(Oc3c(F)cc4[nH]ccc4c3C)ccc2F)n1` (centres unmarked) [Example 225, 3-(3-(1-(2-(2-fluoro-5-((6-fluoro-4-methyl-1H-indol-5-yl)oxy)phenyl)-1H-imidazol-4-yl)-1-hydroxybutyl)phenyl) propanoic acid], “B (B: 5-10° C.)”.
The result for `O=C(O)CCc1cccc(C(O)c2cnc(-c3cccc(Oc4ccc5[nH]ccc5c4C4CC4)c3)[nH]2)c1` (centres unmarked) [Example 175, 3-(3-((2-(3-((4-cyclopropyl-1H-indol-5-yl)oxy)phenyl)-1H-imidazol-5-yl)(hydroxy)methyl)phenyl)propanoic acid] reads “B (B: 5-10° C.)”; that for `CNC(=O)c1c(Oc2cccc(-c3ccn(Cc4cccc(/C=C/C(=O)O)c4)n3)c2)ccc2[nH]ccc12` [Example 15, (E)-3-(3-((3-(3-((4-(Methylcarbamoyl)-1H-indol-5-yl)oxy)phenyl)-1H-pyrazol-1-yl)methyl)phenyl)acrylic acid], “B (B: 5-10° C.)”.
